Laboratory results published in BindingDB's records for patent WO2025049746 (Eikon Therapeutics, 2025).

Tests used:
[1] = biological target: Bifunctional 3'-5' exonuclease/ATP-dependent helicase WRN (Homo sapiens, UniProt Q14191); assay: ADP-Glo Kinase Assay
Method: ATPase activity was measured using the ADP-Glo Kinase Assay following the manufacturers recommended protocol.

[2] = biological target: T1, Bifunctional 3'-5' exonuclease/ATP-dependent helicase WRN [480-1251] (UniProt Q14191); assay: Biochemical Activity Assays
T1 construct: 480-1251
T1 sequence (Q14191 480-1251): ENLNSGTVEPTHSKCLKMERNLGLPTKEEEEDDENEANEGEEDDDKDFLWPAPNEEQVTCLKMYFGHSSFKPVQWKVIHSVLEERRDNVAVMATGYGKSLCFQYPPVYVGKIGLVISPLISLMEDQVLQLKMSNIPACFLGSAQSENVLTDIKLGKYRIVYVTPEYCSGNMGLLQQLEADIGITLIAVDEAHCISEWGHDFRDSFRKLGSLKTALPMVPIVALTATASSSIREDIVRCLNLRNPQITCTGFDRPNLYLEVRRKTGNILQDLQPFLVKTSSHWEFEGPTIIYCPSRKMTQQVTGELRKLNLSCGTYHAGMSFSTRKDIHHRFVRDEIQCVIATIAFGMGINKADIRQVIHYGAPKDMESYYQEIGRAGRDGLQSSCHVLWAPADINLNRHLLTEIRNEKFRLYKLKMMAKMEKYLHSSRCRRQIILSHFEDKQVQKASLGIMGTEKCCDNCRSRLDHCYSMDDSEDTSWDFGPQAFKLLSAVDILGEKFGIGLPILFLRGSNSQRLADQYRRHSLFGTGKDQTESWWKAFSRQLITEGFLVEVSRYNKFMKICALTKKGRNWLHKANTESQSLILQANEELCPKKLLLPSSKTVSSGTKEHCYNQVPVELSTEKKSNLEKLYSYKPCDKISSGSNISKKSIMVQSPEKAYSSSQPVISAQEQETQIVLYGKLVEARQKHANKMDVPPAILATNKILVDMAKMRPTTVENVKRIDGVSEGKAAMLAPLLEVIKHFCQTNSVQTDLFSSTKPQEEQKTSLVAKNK

Bifunctional 3'-5' exonuclease/ATP-dependent helicase WRN, sequence (Q14191 whole entry): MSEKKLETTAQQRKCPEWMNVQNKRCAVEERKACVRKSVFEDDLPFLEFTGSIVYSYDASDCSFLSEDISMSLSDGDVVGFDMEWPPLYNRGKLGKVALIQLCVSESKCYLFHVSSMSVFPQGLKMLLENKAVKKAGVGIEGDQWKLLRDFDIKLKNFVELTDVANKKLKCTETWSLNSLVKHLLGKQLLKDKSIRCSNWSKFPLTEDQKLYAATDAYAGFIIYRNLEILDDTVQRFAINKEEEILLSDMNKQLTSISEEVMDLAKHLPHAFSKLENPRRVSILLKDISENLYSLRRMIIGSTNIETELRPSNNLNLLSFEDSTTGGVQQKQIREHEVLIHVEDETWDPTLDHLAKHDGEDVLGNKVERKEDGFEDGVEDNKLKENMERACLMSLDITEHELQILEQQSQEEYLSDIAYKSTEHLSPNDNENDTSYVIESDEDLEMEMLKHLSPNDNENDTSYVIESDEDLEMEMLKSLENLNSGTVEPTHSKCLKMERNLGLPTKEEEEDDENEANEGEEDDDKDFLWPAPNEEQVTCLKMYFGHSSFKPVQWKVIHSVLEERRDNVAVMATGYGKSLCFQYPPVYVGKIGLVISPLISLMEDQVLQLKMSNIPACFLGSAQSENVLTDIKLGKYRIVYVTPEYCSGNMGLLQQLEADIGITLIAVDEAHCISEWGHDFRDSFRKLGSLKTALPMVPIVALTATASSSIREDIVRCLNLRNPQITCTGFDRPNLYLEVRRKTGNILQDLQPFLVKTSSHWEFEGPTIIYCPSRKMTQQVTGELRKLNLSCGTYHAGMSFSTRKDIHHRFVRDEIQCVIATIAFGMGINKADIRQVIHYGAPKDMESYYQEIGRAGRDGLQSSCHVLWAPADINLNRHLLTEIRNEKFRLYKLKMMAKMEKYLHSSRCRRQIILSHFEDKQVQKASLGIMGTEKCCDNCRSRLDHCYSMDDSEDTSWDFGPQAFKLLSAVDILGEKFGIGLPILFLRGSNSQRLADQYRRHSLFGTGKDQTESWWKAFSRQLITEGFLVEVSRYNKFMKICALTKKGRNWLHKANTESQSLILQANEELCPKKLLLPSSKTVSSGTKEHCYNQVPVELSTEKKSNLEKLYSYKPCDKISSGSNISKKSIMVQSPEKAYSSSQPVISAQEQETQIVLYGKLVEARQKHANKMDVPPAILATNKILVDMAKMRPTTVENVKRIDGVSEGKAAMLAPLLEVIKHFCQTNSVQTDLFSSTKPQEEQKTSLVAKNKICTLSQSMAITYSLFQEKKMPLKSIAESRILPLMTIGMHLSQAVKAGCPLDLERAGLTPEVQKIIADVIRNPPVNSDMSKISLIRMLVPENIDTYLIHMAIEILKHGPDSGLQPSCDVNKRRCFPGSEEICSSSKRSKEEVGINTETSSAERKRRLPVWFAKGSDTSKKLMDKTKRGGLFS

Row | IC50 [1] | IC50 [2] | SMILES
1 | 24 nM | 27 nM | CCc1c(N2CCN(C(=O)c3ncnc(C)c3O)CC2)c(=O)n2nc(-c3cc(C)n4nccc4c3)nc2n1CC(=O)Nc1ccc(C(F)(F)F)cc1Cl [WO2025049746, Example 240]
2 | 493 nM | 554 nM | CCc1c(N2CCN(C(=O)c3ncnc(C)c3O)CC2)c(=O)n2nc(-c3ccc4c(c3)CO[C@H]4C(F)(F)F)nc2n1CC(=O)Nc1ccc(C(F)(F)F)cc1Cl [WO2025049746, Example 274]
3 | 39.3 nM | 33.1 nM | CCc1c(N2CCN(C(=O)c3ncnc(C)c3O)CC2)c(=O)n2nc(-c3cnc4c(c3)COC4)nc2n1CC(=O)Nc1ccc(C(F)(F)F)cc1Cl [WO2025049746, Example 14]
4 | 52 nM | 37 nM | CCc1c(N2CCN(C(=O)c3ncnc(C)c3O)CC2)c(=O)n2nc(-c3cccc4sc(C)nc34)nc2n1CC(=O)Nc1ccc(C(F)(F)F)cc1Cl [WO2025049746, Example 156]
5 | 57 nM | 68 nM | CCc1c(N2CCN(C(=O)c3ncnc(C)c3O)CC2)c(=O)n2nc(-c3ccc4c(c3)CC(C)(C)N4C)nc2n1CC(=O)Nc1ccc(C(F)(F)F)cc1Cl [WO2025049746, Example 316]
6 | 25 nM | 26 nM | CCc1c(N2CCN(C(=O)c3ncnc(C)c3O)CC2)c(=O)n2nc(-c3ccc4nc(N)oc4c3)nc2n1CC(=O)Nc1ccc(C(F)(F)F)cc1Cl [WO2025049746, Example 284]
7 | 32 nM | 32 nM | CCc1c(N2CCN(C(=O)c3ncnc(C)c3O)CC2)c(=O)n2nc(-c3ccc4nc(NC)oc4c3)nc2n1CC(=O)Nc1ccc(C(F)(F)F)cc1Cl [WO2025049746, Example 307]
8 | 50 nM | 47 nM | CCc1c(N2CCN(C(=O)c3ncnc(C)c3O)CC2)c(=O)n2nc(-c3cc4cnn(C)c4cc3C)nc2n1CC(=O)Nc1ccc(C(F)(F)F)cc1Cl [WO2025049746, Example 311]
9 | 26 nM | 29 nM | CCc1c(N2CCN(C(=O)c3ncnc(C)c3O)CC2)c(=O)n2nc(-c3ccc4c(c3)CS(=O)(=O)N4C)nc2n1CC(=O)Nc1ccc(C(F)(F)F)cc1Cl [WO2025049746, Example 279]
10 | 26 nM | 29 nM | CCc1c(N2CCN(C(=O)c3ncnc(C)c3O)CC2)c(=O)n2nc(-c3ccc4nc(C)sc4c3)nc2n1CC(=O)Nc1ccc(C(F)(F)F)cc1Cl [WO2025049746, Example 285]
11 | 32 nM | 26 nM | CCc1c(N2CCN(C(=O)c3ncnc(C)c3O)CC2)c(=O)n2nc(-c3ccc4c(c3)CN(C)C4=O)nc2n1CC(=O)Nc1ccc(C(F)(F)F)cc1Cl [WO2025049746, Example 185]
12 | 32 nM | 31 nM | CCc1c(N2CCN(C(=O)c3ncnc(C)c3O)CC2)c(=O)n2nc(-c3ccc4c(c3)NC(=O)C4)nc2n1CC(=O)Nc1ccc(C(F)(F)F)cc1Cl [WO2025049746, Example 309]
13 | 51 nM | 41 nM | CCc1c(N2CCN(C(=O)c3ncnc(C)c3O)CC2)c(=O)n2nc(-c3ccc4c(c3)C(C)CO4)nc2n1CC(=O)Nc1ccc(C(F)(F)F)cc1Cl (centres undefined) [WO2025049746, Example 170]
14 | 39 nM | 33 nM | CCc1c(N2CCN(C(=O)c3ncnc(C)c3O)CC2)c(=O)n2nc(-c3ccc4c(c3)CC[C@@H]4OC)nc2n1CC(=O)Nc1ccc(C(F)(F)F)cc1Cl [WO2025049746, Example 207]
15 | 81 nM | 65 nM | CCc1c(N2CCN(C(=O)c3ncnc(C)c3O)CC2)c(=O)n2nc(-c3cnc4c(c3)CCOC4)nc2n1CC(=O)Nc1ccc(C(F)(F)F)cc1Cl [WO2025049746, Example 162]
16 | 27 nM | 31 nM | CCc1c(N2CCN(C(=O)c3ncnc(C)c3O)CC2)c(=O)n2nc(-c3ccc4c(c3)OCCN4)nc2n1CC(=O)Nc1ccc(C(F)(F)F)cc1Cl [WO2025049746, Example 281]
17 | 25 nM | 24 nM | CCc1c(N2CCN(C(=O)c3ncnc(C)c3O)CC2)c(=O)n2nc(-c3ccc4c(c3)ncn4C)nc2n1CC(=O)Nc1ccc(C(F)(F)F)cc1Cl [WO2025049746, Example 254]
18 | 21 nM | 25 nM | CCc1c(N2CCN(C(=O)c3ncnc(C)c3O)CC2)c(=O)n2nc(-c3ccc(NS(N)(=O)=O)cc3)nc2n1CC(=O)Nc1ccc(C(F)(F)F)cc1Cl [WO2025049746, Example 329]

The remaining lines, values behind:

Row | SMILES | IC50 [1] | IC50 [2]
19 | CCc1c(N2CCN(C(=O)c3nsc(N4CCOCC4)c3O)CC2)c(=O)n2nc(-c3ccc4c(c3)COC4)nc2n1CC(=O)Nc1ccc(C(F)(F)F)cc1Cl [WO2025049746, Example 445] | 72 nM | 70 nM
20 | CCc1c(N2CCN(C(=O)c3nc4c(cc3OCc3ccc(OC)cc3)COCC4)CC2)c(=O)n2nc(-c3ccc4c(c3)COC4(C)C)nc2n1CC(=O)Nc1ccc(C(F)(F)F)cc1Cl [WO2025049746, Example 464] | 68 nM | 83.3 nM
21 | CCc1c(N2CCN(C(=O)c3ncnc(C)c3O)CC2)c(=O)n2nc(C3=CCOCC3)nc2n1CC(=O)NC12CC(C3CC3)(C1)C2 [WO2025049746, Example 359] | 232 nM | 148 nM
22 | CCc1c(N2CCN(C(=O)c3ncnc(C)c3O)CC2)c(=O)n2nc(-c3ccc4c(c3)OCO4)nc2n1CC(=O)Nc1ccc(C(F)(F)F)c2c1CC2 [WO2025049746, Example 96] | 28.3 nM | 25.9 nM
23 | CCc1c(N2CCN(C(=O)C(C)n3cncn3)CC2)c(=O)n2nc(C3=CCOCC3)nc2n1CC(=O)Nc1ccc(C(F)(F)F)cc1Cl (centres undefined) [WO2025049746, Example 62] | 413 nM | 133 nM
24 | CCc1c(N2CCN(C(=O)c3ncnc(C)c3O)CC2)c(=O)n2nc(-c3cc4c(cc3F)C(C)(C)OC4)nc2n1CC(=O)Nc1ccc(C(F)(F)F)cc1Cl [WO2025049746, Example 211] | 36 nM | 32 nM
25 | CCc1c(N2CCN(C(=O)c3ncnc(C)c3O)CC2)c(=O)n2nc(-c3cccc4c3CCOC4)nc2n1CC(=O)Nc1c(Cl)cc(C(F)(F)F)c2c1CC2 [WO2025049746, Example 389] | 1170 nM | 137 nM
26 | CCc1c(N2CCN(C(=O)c3ncnc(C)c3O)CC2)c(=O)n2nc(-c3cnc4nccn4c3)nc2n1CC(=O)Nc1ccc(C(F)(F)F)cc1Cl [WO2025049746, Example 305] | 48 nM | 48 nM
27 | CCc1c(N2CCN(C(=O)c3ncnc(C)c3O)CC2)c(=O)n2nc(-c3ccc(S(=O)(=O)N4CCC4)cc3)nc2n1CC(=O)Nc1ccc(C(F)(F)F)cc1Cl [WO2025049746, Example 270] | 19 nM | 18 nM
28 | CCc1c(N2CCN(C(=O)c3ncnc(C)c3O)CC2)c(=O)n2nc(N3CC(OC)C3)nc2n1CC(=O)Nc1ccc(C(F)(F)F)cc1Cl [WO2025049746, Example 27] | 86.3 nM | 56 nM
29 | CCc1c(N2CCN(C(=O)c3ncnc(C)c3O)CC2)c(=O)n2nc(-c3cccc4c3OCO4)nc2n1CC(=O)Nc1c(Cl)cc(C(F)(F)F)c2c1CC2 [WO2025049746, Example 385] | 96 nM | 87 nM
30 | CCc1c(N2CCN(C(=O)c3ncnc(C)c3O)CC2)c(=O)n2nc(-c3cc(OC)c4nn(C)cc4c3)nc2n1CC(=O)Nc1ccc(C(F)(F)F)cc1Cl [WO2025049746, Example 286] | 35 nM | 38 nM
31 | CCc1c(N2CCN(C(=O)C3=CCOCC3)CC2)c(=O)n2nc(-c3ccnc(O)n3)nc2n1CC(=O)Nc1ccc(C(F)(F)F)cc1Cl [WO2025049746, Example 430] | 550 nM | 373 nM
32 | CCc1c(N2CCN(C(=O)c3ncnc(C)c3O)CC2)c(=O)n2nc(-c3cccc4c3OCCO4)nc2n1CC(=O)Nc1ccc(SC(F)(F)F)cc1 [WO2025049746, Example 411] | 420 nM | 232 nM
33 | CCc1c(N2CCN(C(=O)c3ncnc(C)c3O)CC2)c(=O)n2nc(-c3ccc4c(c3)COC4)nc2n1CC(=O)Nc1c(Cl)cc(C(F)(F)F)cc1OC1CC1 [WO2025049746, Example 414] | 2370 nM | 1130 nM
34 | CCc1c(-c2cc3n(n2)CC(=O)N(C)C3)c(=O)n2nc(C3=CCOCC3)nc2n1CC(=O)Nc1ccc(C(F)(F)F)cc1Cl [WO2025049746, Example 338] | 29700 nM | 29700 nM
35 | CCc1c(N2CCN(C(=O)c3ncnc(C)c3O)CC2)c(=O)n2nc(-c3ccc4c(c3F)COC4(C)C)nc2n1CC(=O)Nc1ccc(C(F)(F)F)cc1Cl [WO2025049746, Example 216] | 37 nM | 37 nM
36 | Cc1ncnc(C(=O)N2CCN(c3c4n(c5nc(-c6ccc7c(c6)COC7(C)C)nn5c3=O)[C@H](C(=O)Nc3ccc(C(F)(F)F)cc3Cl)C[C@@H]4C)[C@H]3CC[C@@H]32)c1O [WO2025049746, Example 468] | 38.1 nM | 42.4 nM
37 | CCc1c(N2CCN(C(=O)c3ncnc(C)c3O)CC2)c(=O)n2nc(C3=CCOCC3)nc2n1CC(=O)NC1CCC(F)(F)CC1 [WO2025049746, Example 351] | 3960 nM | 3670 nM
38 | CCc1c(N2CCN(C(=O)c3ncnc(C)c3O)CC2)c(=O)n2nc(C3=CCOCC3)nc2n1CC(=O)Nc1ccc(C(F)(F)F)n(C)c1=O [WO2025049746, Example 367] | 29700 nM | 8510 nM
39 | CCc1c(N2CCN(C(=O)c3cccc4c3NS(=O)(=O)C=C4)CC2)c(=O)n2nc(-c3ccc4c(c3)COC4)nc2n1CC(=O)Nc1ccc(C(F)(F)F)cc1Cl [WO2025049746, Example 426] | 34 nM | 25 nM
40 | CCc1c(N2CCN(C(=O)c3ncnc(C)c3O)CC2)c(=O)n2nc(-c3ccc(OCC(=O)O)cc3)nc2n1CC(=O)Nc1ccc(C(F)(F)F)cc1Cl [WO2025049746, Example 330] | 25 nM | 33 nM
41 | CCc1c(N2CCN(C(=O)c3ncnc(C)c3O)CC2)c(=O)n2nc(-c3cccc4c3OCCO4)nc2n1CC(=O)Nc1c(Cl)cc(C(F)(F)F)c2c1CC2 [WO2025049746, Example 388] | 87 nM | 58 nM
42 | CCc1c(N2CCN(C(=O)c3ncnc(C)c3O)CC2)c(=O)n2nc(-c3cccc4c3OCO4)nc2n1CC(=O)Nc1ccc(SC(F)(F)F)cc1Cl [WO2025049746, Example 400] | 130 nM | 103 nM
